The values below come from ChEMBL document CHEMBL5712891, “Inhibition of BET bromodomain-dependent XIAP and FLIP expression sensitizes KRAS-mutated NSCLC to pro-apoptotic agents” (Cell Death Dis, 2016).

Each structure is given as a SMILES string. Active and inactive are the calls of the source. The calls are words filed in the database; no cut-off is given here.

In data set [1] the test system is DV-90. Nature of the data set: Induction of cell cycle arrest in human DV-90 cells assessed as accumulation of cells at S phase at 0.5 uM for 24 hrs by Click-iT EdU Alexa Fluor 647 flow cytometric assay kit analysis (reference value: 31%). Format: functional. Background: Flow cytometry measures light scatter and fluorescence of single cells or particles in a stream.

Data set [2] concerns NCI-H23. Nature of the data set: Downregulation of XIAP mRNA expression level in human NCI-H23 cells at 0.1 to 1 uM for 24 hrs by qRT-PCR analysis. Type of data set: functional, cell-based. To be noted: dose 0.1-1 µM.
Data set [3] concerns NCI-H460. The experiment in a line: Induction of cell cycle arrest in human NCI-H460 cells assessed as accumulation of cells at G0/G1 phase at 0.5 uM for 24 hrs by Click-iT EdU Alexa Fluor 647 flow cytometric assay kit analysis (reference value: 43%). Format: functional.
Data set [4] deals with NCI-H460. Nature of the data set: Induction of cell cycle arrest in human NCI-H460 cells assessed as accumulation of cells at G2/M phase at 0.25 uM for 24 hrs by Click-iT EdU Alexa Fluor 647 flow cytometric assay kit analysis (reference value: 1%). Type of data set: functional.
Data set [5] has as its system NCI-H23. Nature of the data set: Downregulation of c-MYC protein expression level in human NCI-H23 cells at 1 uM for 24 hrs by […] analysis. Format: functional, cell-based.
Data set [6] deals with NCI-H460. The experiment in a line: Induction of cell cycle arrest in human NCI-H460 cells assessed as accumulation of cells at G0/G1 phase at 0.1 uM for 24 hrs by Click-iT EdU Alexa Fluor 647 flow cytometric assay kit analysis (reference value: 43%). Type of data set: functional.
Data set [7] has as its system NCI-H460. The experiment in a line: Induction of cell cycle arrest in human NCI-H460 cells assessed as accumulation of cells at G2/M phase at 0.1 uM for 24 hrs by Click-iT EdU Alexa Fluor 647 flow cytometric assay kit analysis (reference value: 1%). Type of data set: functional.
For data set [8], the system named is NCI-H460. Nature of the data set: Induction of cell cycle arrest in human NCI-H460 cells assessed as accumulation of cells at G2/M phase at 1 uM for 24 hrs by Click-iT EdU Alexa Fluor 647 flow cytometric assay kit analysis (reference value: 1%). Format: functional.
The test system of data set [9] is NCI-H1373. The experiment in a line: Induction of apoptosis in human NCI-H1373 cells assessed as early apoptotic cells at 0.5 uM for 24 hrs by annexin V-PI staining based flow cytometric analysis (reference value: 0.6%). Type of data set: functional.
Data set [10] deals with DV-90. The experiment in a line: Induction of cell cycle arrest in human DV-90 cells assessed as accumulation of cells at S phase at 0.25 uM for 24 hrs by Click-iT EdU Alexa Fluor 647 flow cytometric assay kit analysis (reference value: 31%). Format: functional.
In data set [11] the test system is NCI-H1373. The experiment in a line: Induction of cell cycle arrest in human NCI-H1373 cells assessed as accumulation of cells at G0/G1 phase at 0.5 uM for 24 hrs by Click-iT EdU Alexa Fluor 647 flow cytometric assay kit analysis (reference value: 40%). Format: functional.
Data set [12] deals with NCI-H460. Nature of the data set: Induction of cell cycle arrest in human NCI-H460 cells assessed as accumulation of cells at G2/M phase at 0.5 uM for 24 hrs by Click-iT EdU Alexa Fluor 647 flow cytometric assay kit analysis (reference value: 1%). Format: functional.
The subject of data set [13] is NCI-H460. The experiment in a line: Induction of cell cycle arrest in human NCI-H460 cells assessed as accumulation of cells at G0/G1 phase at 1 uM for 24 hrs by Click-iT EdU Alexa Fluor 647 flow cytometric assay kit analysis (reference value: 43%). Type of data set: functional.
Data set [14] relates to NCI-H460. Nature of the data set: Induction of cell cycle arrest in human NCI-H460 cells assessed as accumulation of cells at G0/G1 phase at 0.25 uM for 24 hrs by Click-iT EdU Alexa Fluor 647 flow cytometric assay kit analysis (reference value: 43%). Type of data set: functional.
A further data set has as its system NCI-H2347. Nature of the data set: Downregulation of XIAP protein expression level in human NCI-H2347 cells at 1 uM for 24 hrs by […] analysis. Format: functional, cell-based.
The test system of data set [15] is A549. The experiment in a line: Induction of apoptosis in human A549 cells assessed as late apoptotic cells at 1 uM in presenc of cisplatin by annexin V-PI based flow cytometric analysis (reference value: 2.5%). Type of data set: functional.
In data set [16] the test system is NCI-H460. Nature of the data set: Induction of cell cycle arrest in human NCI-H460 cells assessed as accumulation of cells at S phase at 0.1 uM for 24 hrs by Click-iT EdU Alexa Fluor 647 flow cytometric assay kit analysis (reference value: 56%). Type of data set: functional.
Data set [17] deals with DV-90. The experiment in a line: Induction of cell cycle arrest in human DV-90 cells assessed as accumulation of cells at S phase at 1 uM for 24 hrs by Click-iT EdU Alexa Fluor 647 flow cytometric assay kit analysis (reference value: 31%). Format: functional.
The subject of data set [18] is NCI-H460. Nature of the data set: Induction of cell cycle arrest in human NCI-H460 cells assessed as accumulation of cells at S phase at 0.25 uM for 24 hrs by Click-iT EdU Alexa Fluor 647 flow cytometric assay kit analysis (reference value: 56%). Format: functional.
Data set [19] is described as follows: Toxicity in SCID mouse xenografted with human NCI-H1373 cells assessed as body weight loss at 50 mg/kg, ip measured on after 15 days relative to control. Type of data set: organism-based. To be noted: in vivo, 360 h, time 15 day.
The test system of data set [20] is NCI-H460. Nature of the data set: Induction of cell cycle arrest in human NCI-H460 cells assessed as accumulation of cells at S phase at 1 uM for 24 hrs by Click-iT EdU Alexa Fluor 647 flow cytometric assay kit analysis (reference value: 56%). Type of data set: functional.
The test system of data set [21] is NCI-H1373. Nature of the data set: Downregulation of c-MYC mRNA expression level in human NCI-H1373 cells at 0.1 to 1 uM for 24 hrs by qRT-PCR analysis. Type of data set: functional, cell-based. To be noted: dose 0.1-1 µM. (In qPCR the cycle at which signal appears reflects the starting amount.)
The test system of data set [22] is A549. The experiment in a line: Induction of cell cycle arrest in human A549 cells assessed as accumulation of cells at G0/G1 phase at 1 uM for 24 hrs by Click-iT EdU Alexa Fluor 647 flow cytometric assay kit analysis (reference value: 61%). Type of data set: functional.
Data set [23] deals with NCI-H1373. The experiment in a line: Downregulation of c-MYC protein expression level in human NCI-H1373 cells at 1 uM for 24 hrs by […] analysis. Format: functional, cell-based.
Data set [24] has as its system DV-90. Nature of the data set: Induction of cell cycle arrest in human DV-90 cells assessed as accumulation of cells at S phase at 0.1 uM for 24 hrs by Click-iT EdU Alexa Fluor 647 flow cytometric assay kit analysis (reference value: 31%). Format: functional.
The test system of data set [25] is NCI-H460. The experiment in a line: Induction of apoptosis in human NCI-H460 cells assessed as necrotic cells at 2.5 uM for 24 hrs by annexin V-PI staining based flow cytometric analysis (reference value: 2.7%). Format: functional.
The subject of the next data set is NCI-H441. Nature of the data set: Downregulation of XIAP protein expression level in human NCI-H441 cells at 1 uM for 24 hrs by […] analysis. Type of data set: functional, cell-based.
For data set [26], the system named is NCI-H460. The experiment in a line: Induction of cell cycle arrest in human NCI-H460 cells assessed as accumulation of cells at S phase at 0.5 uM for 24 hrs by Click-iT EdU Alexa Fluor 647 flow cytometric assay kit analysis (reference value: 56%). Format: functional.
Data set [27] has as its system DV-90. Nature of the data set: Induction of apoptosis in human DV-90 cells assessed as viable cells at 2.5 uM for 48 hrs by annexin V-PI staining based flow cytometric analysis (reference value: 81.9%). To be noted: DV-90, 48 h.
The test system of data set [28] is A549. The experiment in a line: Induction of apoptosis in human A549 cells assessed as viable cells at 2.5 uM for 24 hrs by annexin V-PI staining based flow cytometric analysis (reference value: 97.7%). Format: functional. To be noted: read-out: Activity.

Regarding `Cc1sc2c(c1C)C(c1ccc(Cl)cc1)=N[C@@H](CC(=O)OC(C)(C)C)c1nnc(C)n1-2`, the Activity in the data set on DV-90 [1] worked out at 18%; with NCI-H460 [3], 45%; in the data set with NCI-H460 [4], 1%; in the data set with NCI-H460 [6], 44%; in the data set on NCI-H460 [7] it was 1%; in the data set on NCI-H460 [8], 1%. The Activity with NCI-H1373 [9] turned out to be 2.5%; with DV-90 [10], 24%; in the data set on NCI-H1373 [11], 63%; in the data set on NCI-H460 [12], 1%; with NCI-H460 [13] it was 45%; in the data set on NCI-H460 [14], 41%. Also, the Activity was found to be 28.5% in the data set with A549 [15]; 55% with NCI-H460 [16]; 15% in the data set on DV-90 [17]; 57% in the data set on NCI-H460 [18]; 5% in data set [19]; 54% in the data set on NCI-H460 [20]. Besides, the Activity is 64% in the data set on A549 [22], 27% in the data set with DV-90 [24], 3.7% with NCI-H460 [25] and 54% in the data set on NCI-H460 [26]. For the same compound, the result in the data set on NCI-H23 [2], with NCI-H23 [5], with NCI-H2347, in the data set with NCI-H1373 [21], with NCI-H1373 [23] and in the data set with NCI-H441 was Active.
With `Cc1sc2c(c1C)C(c1ccc(Cl)cc1)=N[C@@H](CC(=O)Nc1ccc(O)cc1)c1nnc(C)n1-2` [BIRABRESIB], the Activity was 17% with DV-90 [1]; 1% with NCI-H460 [4]; 1% with NCI-H460 [7]; 1% in the data set with NCI-H460 [8]; 21% in the data set with DV-90 [10]; 3% in the data set on NCI-H460 [12]. For the same compound, the figures for the Activity in the data set with DV-90 [17] and in the data set on DV-90 [24] were 17% and 20%, respectively. For the same compound, the viability at 2.5 µM in the data set on DV-90 [27] amounted to 49.4%; with A549 [28] it was 97.3%.
As for `CCNC(=O)C[C@@H]1N=C(c2ccc(Cl)cc2)c2cc(OC)ccc2-n2c(C)nnc21` [MOLIBRESIB], the Activity in the data set on NCI-H460 [3] stood at 49%; in the data set with NCI-H460 [4], 1%; in the data set with NCI-H460 [6], 46%; in the data set on NCI-H460 [7] it was 1%; in the data set on NCI-H460 [8], 1%; in the data set with NCI-H460 [12] it was 1%. Moreover, the Activity in the data set with NCI-H460 [13] is reported as 51%; with NCI-H460 [14], 45%; with NCI-H460 [16], 53%; with NCI-H460 [18], 54%; with NCI-H460 [20], 47%; in the data set with NCI-H460 [26], 49%.
